Laboratory results reported in article PMC7845594, “Novel Immune Modulators Enhance Caenorhabditis elegans Resistance to Multiple Pathogens” (mSphere, 2021).

Assays:
glp-4(bn2) worms = experiment: Longevity (life span) assay; details: 50 μM in NGM, E. coli OP50, Fig 3A
C. elegans transcriptome = experiment: Transcriptome profiling (Affymetrix microarrays), differentially expressed genes; assay type: in vivo, Caenorhabditis elegans
In short: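 Wild-type young-adult C. elegans (~6,000 per condition, triplicate) were exposed to each drug at 100 µM or to DMSO for 8 h without pathogen. TRIzol/RNeasy RNA was profiled on Affymetrix arrays. Fold changes were normalized to each gene's mean across conditions and clustered by Euclidean distance with average linkage.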

[1] = Downregulated genes, Affy_ID 171867_x_at

Compound: CN(C)/N=N/c1ccc(-c2cn(Cc3ccccc3)cn2)cc1 [LK38]
- TD50 (time to 50% death), life span (glp-4(bn2) worms): 7.6 days
- Fold Change (C. elegans transcriptome; Affy_ID 171867_x_at, listed under genes C09B9.6, F36H12.7, K07F5.1, R05F9.13, R13H9.2, R13H9.4, T13F2.10, T13F2.11, Y59E9AR.1, Y59E9AR.7, ZK354.1, downregulated genes): 0.2521
- Fold Change (C. elegans transcriptome; Affy_ID 176276_s_at, listed under gene Y69A2AR.25 (LK34) or Y69A2AR.12 (LK38), downregulated genes): 0.3902
- Fold Change, gene ZK525.1 (C. elegans transcriptome; Downregulated genes, Affy_ID 171849_x_at): 0.4368
- Fold Change, gene ZK354.10 (C. elegans transcriptome; [1]): 0.2521
- Fold Change, gene ZK354.11 (C. elegans transcriptome; [1]): 0.2521
- Fold Change, gene ZK354.4 (C. elegans transcriptome; [1]): 0.2521
- Fold Change, gene ZK354.5 (C. elegans transcriptome; [1]): 0.2521
- Fold Change, gene ZK525.1 (C. elegans transcriptome; Downregulated genes, Affy_ID 172214_x_at): 0.3013
- Fold Change, gene ZK484.8 (C. elegans transcriptome; Downregulated genes, Affy_ID 172381_x_at): 0.4248
- Fold Change, gene ZK546.3 (C. elegans transcriptome; Downregulated genes, Affy_ID 172798_x_at): 0.1961
- Fold Change, gene ZK546.6 (C. elegans transcriptome; Downregulated genes, Affy_ID 172900_x_at): 0.1945
- Fold Change, gene ZK354.4 (C. elegans transcriptome; Downregulated genes, Affy_ID 172922_x_at): 0.2136
- Fold Change, gene ZK354.11 (C. elegans transcriptome; Downregulated genes, Affy_ID 172925_x_at): 0.2447
- Fold Change, gene ZK354.5 (C. elegans transcriptome; Downregulated genes, Affy_ID 172928_x_at): 0.2421
- Fold Change, gene ZK550.2 (C. elegans transcriptome; Downregulated genes, Affy_ID 179513_at): 0.2459
- Fold Change, gene ZK484.5 (C. elegans transcriptome; Downregulated genes, Affy_ID 182193_at): 0.3776
- Fold Change, gene ZK666.7 (C. elegans transcriptome; Downregulated genes, Affy_ID 194066_s_at): 0.2101
- Fold Change (C. elegans transcriptome; Gene C05C12.3, Affy_ID 183355_s_at, downregulated genes): 0.3153
- Fold Change (C. elegans transcriptome; Gene C08E3.1, Affy_ID 172309_x_at, downregulated genes): 0.1357
- Fold Change (C. elegans transcriptome; Gene C08E3.13, Affy_ID 172565_x_at, downregulated genes): 0.1172
- Fold Change (C. elegans transcriptome; Gene C08F11.13, Affy_ID 175229_at, downregulated genes): 0.2733
- Fold Change (C. elegans transcriptome; Gene C08F11.13, Affy_ID 185001_at, downregulated genes): 0.09464
- Fold Change (C. elegans transcriptome; Gene C09B9.6, Affy_ID 172903_x_at, downregulated genes): 0.2435
- Fold Change (C. elegans transcriptome; Gene C14C6.2, Affy_ID 183566_at, downregulated genes): 0.3131
- Fold Change (C. elegans transcriptome; Gene R01E6.3, Affy_ID 189628_at, downregulated genes): 0.3184
- Fold Change (C. elegans transcriptome; Gene R03E9.1, Affy_ID 193723_s_at, downregulated genes): 0.2835
- Fold Change (C. elegans transcriptome; Gene R04B5.9, Affy_ID 191440_at, downregulated genes): 0.3161
- Fold Change (C. elegans transcriptome; Gene R05F9.13, Affy_ID 172714_x_at, downregulated genes): 0.2707
- Fold Change (C. elegans transcriptome; Gene R05F9.3, Affy_ID 172725_x_at, downregulated genes): 0.4569
- Fold Change (C. elegans transcriptome; Gene R05F9.8, Affy_ID 172724_x_at, downregulated genes): 0.2625
- Fold Change (C. elegans transcriptome; Gene R12C12.1, Affy_ID 190616_at, downregulated genes): 0.3782
- Fold Change (C. elegans transcriptome; Gene R13H9.2, Affy_ID 172771_x_at, downregulated genes): 0.2091
- Fold Change (C. elegans transcriptome; Gene R13H9.4, Affy_ID 172770_x_at, downregulated genes): 0.2077
- Fold Change (C. elegans transcriptome; Gene T01C3.4, Affy_ID 188106_at, downregulated genes): 0.02377
- Fold Change (C. elegans transcriptome; Gene T02B11.3, Affy_ID 174051_s_at, downregulated genes): 0.3852
- Fold Change (C. elegans transcriptome; Gene T07C4.4, Affy_ID 178149_s_at, downregulated genes): 0.3385
- Fold Change (C. elegans transcriptome; Gene T07G12.5, Affy_ID 188496_s_at, downregulated genes): 0.1128
- Fold Change (C. elegans transcriptome; Gene T08B1.6, Affy_ID 192296_at, downregulated genes): 0.264
- Fold Change (C. elegans transcriptome; Gene T08B2.12, Affy_ID 184685_s_at, downregulated genes): 0.1122
- Fold Change (C. elegans transcriptome; Gene T09F5.9, Affy_ID 188947_at, downregulated genes): 0.335
- Fold Change (C. elegans transcriptome; Gene T13F2.10, Affy_ID 172906_x_at, downregulated genes): 0.282
- Fold Change (C. elegans transcriptome; Gene T13F2.11, Affy_ID 172905_x_at, downregulated genes): 0.2555
- Fold Change (C. elegans transcriptome; Gene T14B4.4, Affy_ID 190598_at, downregulated genes): 0.3119
- Fold Change (C. elegans transcriptome; Gene T15B7.9, Affy_ID 182858_at, downregulated genes): 0.3485
- Fold Change (C. elegans transcriptome; Gene T20D4.11, Affy_ID 184438_at, downregulated genes): 0.08285
- Fold Change (C. elegans transcriptome; Gene T22H2.6, Affy_ID 180962_s_at, downregulated genes): 0.4528
- Fold Change (C. elegans transcriptome; Gene T23B7.1, Affy_ID 172486_x_at, downregulated genes): 0.4388
- Fold Change (C. elegans transcriptome; Gene T23B12.8, Affy_ID 184855_at, downregulated genes): 0.1808
- Fold Change (C. elegans transcriptome; Gene T23F4.1, Affy_ID 180223_s_at, downregulated genes): 0.03953
- Fold Change (C. elegans transcriptome; Gene T23F4.3, Affy_ID 179815_at, downregulated genes): 0.03894
- Fold Change (C. elegans transcriptome; Gene T27A10.7, Affy_ID 186153_s_at, downregulated genes): 0.1891
- Fold Change (C. elegans transcriptome; Gene T27E4.7, Affy_ID 173756_at, downregulated genes): 0.3486
- Fold Change (C. elegans transcriptome; Gene T27E4.7, Affy_ID 173757_s_at, downregulated genes): 0.3375
- Fold Change (C. elegans transcriptome; Gene T28H11.6, Affy_ID 172704_x_at, downregulated genes): 0.3336
- Fold Change (C. elegans transcriptome; Gene W04B5.2, Affy_ID 180561_at, downregulated genes): 0.445
- Fold Change (C. elegans transcriptome; Gene W07B8.5, Affy_ID 191887_s_at, downregulated genes): 0.336
- Fold Change (C. elegans transcriptome; Gene Y40D12A.2, Affy_ID 191017_at, downregulated genes): 0.3923
- Fold Change (C. elegans transcriptome; Gene Y43F8B.2, Affy_ID 172568_x_at, downregulated genes): 0.4361
- Fold Change (C. elegans transcriptome; Gene Y44A6C.1, Affy_ID 182843_at, downregulated genes): 0.4118
- Fold Change (C. elegans transcriptome; Gene Y45F10A.5, Affy_ID 184558_at, downregulated genes): 0.1874
- Fold Change (C. elegans transcriptome; Gene Y46G5A.11, Affy_ID 184716_at, downregulated genes): 0.4392
- Fold Change (C. elegans transcriptome; Gene Y48A6B.7, Affy_ID 193926_at, downregulated genes): 0.1656
- Fold Change (C. elegans transcriptome; Gene Y48A6B.7, Affy_ID 193927_s_at, downregulated genes): 0.1715
- Fold Change (C. elegans transcriptome; Gene Y51A2D.13, Affy_ID 192992_at, downregulated genes): 0.2626
- Fold Change (C. elegans transcriptome; Gene Y51H4A.7, Affy_ID 180145_s_at, downregulated genes): 0.364
- Fold Change (C. elegans transcriptome; Gene Y59E9AR.7, Affy_ID 172629_x_at, downregulated genes): 0.2101
- Fold Change (C. elegans transcriptome; Gene Y59H11AM.1, Affy_ID 172113_x_at, downregulated genes): 0.292
- Fold Change (C. elegans transcriptome; Gene Y71H2AL.1, Affy_ID 177190_at, downregulated genes): 0.3481
- Fold Change (C. elegans transcriptome; Gene Y105C5A.13, Affy_ID 172627_x_at, downregulated genes): 0.08697
- Fold Change (C. elegans transcriptome; Gene Y105C5A.24, Affy_ID 187121_at, downregulated genes): 0.3583
- Fold Change (C. elegans transcriptome; Gene Y119D3B.13, Affy_ID 175112_s_at, downregulated genes): 0.1938
- Fold Change (C. elegans transcriptome; Gene Y119D3B.13, Affy_ID 176131_at, downregulated genes): 0.2809
- Fold Change (C. elegans transcriptome; Gene ZC416.6, Affy_ID 188470_s_at, downregulated genes): 0.4112
- Fold Change (C. elegans transcriptome; Gene ZK112.1, Affy_ID 175995_at, downregulated genes): 0.3894
- Fold Change (C. elegans transcriptome; Gene ZK131.4, Affy_ID 190307_s_at, downregulated genes): 0.355
- Fold Change (C. elegans transcriptome; Gene ZK131.7, Affy_ID 172871_x_at, downregulated genes): 0.3915
- Fold Change (C. elegans transcriptome; Gene ZK354.1, Affy_ID 172927_x_at, downregulated genes): 0.2349
- Fold Change (C. elegans transcriptome; Gene ZK1248.4, Affy_ID 172734_x_at, downregulated genes): 0.2783
- Fold Change (C. elegans transcriptome; Gene ZK1248.6, Affy_ID 172887_x_at, downregulated genes): 0.1775
- Fold Change (C. elegans transcriptome; Gene ZK1251.6, Affy_ID 172938_x_at, downregulated genes): 0.2909
- Fold Change (C. elegans transcriptome; upregulated gene Y19D10A.9, Affy_ID 180592_s_at): 3.58
- Fold Change (C. elegans transcriptome; upregulated gene Y22F5A.4, Affy_ID 182989_at): 2.438
- Fold Change (C. elegans transcriptome; upregulated gene Y22F5A.5, Affy_ID 183028_s_at): 6.765
- Fold Change (C. elegans transcriptome; upregulated gene Y37D8A.6, Affy_ID 181665_at): 2.8924
- Fold Change (C. elegans transcriptome; upregulated gene Y37E3.16, Affy_ID 173045_at): 4.522
- Fold Change (C. elegans transcriptome; upregulated gene Y38E10A.14, Affy_ID 175449_s_at): 26.3223
- Fold Change (C. elegans transcriptome; upregulated gene Y39G10AR.10, Affy_ID 176486_at): 4.567
- Fold Change (C. elegans transcriptome; upregulated gene Y40B10A.6, Affy_ID 176851_at): 66.4819
- Fold Change (C. elegans transcriptome; upregulated gene Y41C4A.16, Affy_ID 194230_x_at): 2.891
- Fold Change (C. elegans transcriptome; upregulated gene Y41D4B.10, Affy_ID 176055_at): 10.2277
- Fold Change (C. elegans transcriptome; upregulated gene Y41D4B.16, Affy_ID 176044_at): 4.224
- Fold Change (C. elegans transcriptome; upregulated gene Y45F10C.4, Affy_ID 186062_at): 3.88
- Fold Change (C. elegans transcriptome; upregulated gene Y45G12C.2, Affy_ID 187084_at): 31.3356
- Fold Change (C. elegans transcriptome; upregulated gene Y46C8AL.2, Affy_ID 172184_x_at): 22.6612
- Fold Change (C. elegans transcriptome; upregulated gene Y46G5A.4, Affy_ID 187467_s_at): 2.088
- Fold Change (C. elegans transcriptome; upregulated gene Y47D3B.10, Affy_ID 175803_at): 15.9397
- Fold Change (C. elegans transcriptome; upregulated gene Y47D7A.1, Affy_ID 176618_at): 2.89
- Fold Change (C. elegans transcriptome; upregulated gene Y47H9C.5, Affy_ID 191065_s_at): 3.429
- Fold Change (C. elegans transcriptome; upregulated gene Y51H7C.1, Affy_ID 186349_at): 10.9287
- Fold Change (C. elegans transcriptome; upregulated gene Y53G8B.2, Affy_ID 184714_s_at): 6.111
- Fold Change (C. elegans transcriptome; upregulated gene Y54G2A.6, Affy_ID 173144_at): 2.211
- Fold Change (C. elegans transcriptome; upregulated gene Y55B1AR.1, Affy_ID 187047_at): 6.195
- Fold Change (C. elegans transcriptome; upregulated gene Y57A10A.23, Affy_ID 187073_at): 4.734
- Fold Change (C. elegans transcriptome; upregulated gene Y66D12A.24, Affy_ID 175124_at): 2.206
- Fold Change (C. elegans transcriptome; upregulated gene Y77E11A.2, Affy_ID 187013_at): 2.874
- Fold Change (C. elegans transcriptome; upregulated gene Y105C5B.15, Affy_ID 186799_at): 3.08
- Fold Change (C. elegans transcriptome; upregulated gene Y105C5B.9, Affy_ID 185162_at): 4.4277
- Fold Change (C. elegans transcriptome; upregulated gene Y106G6D.6, Affy_ID 185498_at): 6.567
- Fold Change (C. elegans transcriptome; upregulated gene ZC155.1, Affy_ID 173222_s_at): 2.443
- Fold Change (C. elegans transcriptome; upregulated gene ZK455.1, Affy_ID 193891_at): 2.648
- Fold Change (C. elegans transcriptome; upregulated gene ZK455.7, Affy_ID 193924_at): 3.307
- Fold Change (C. elegans transcriptome; upregulated gene ZK512.7, Affy_ID 186714_s_at): 3.427
- Fold Change (C. elegans transcriptome; upregulated gene ZK637.13, Affy_ID 173475_s_at): 2.9018
- Fold Change (C. elegans transcriptome; upregulated gene ZK770.3, Affy_ID 180366_s_at): 3.303
- Fold Change (C. elegans transcriptome; upregulated gene ZK899.2, Affy_ID 178376_s_at): 3.754
